Where two headings read alike, the source gives them in different places.
Columns and labels:
[1] = tested on: THP-1 cells; assay: MCP-1 mediated calcium flux in THP-1 cells; type: cell-based, human; details: stimulation of THP-1 cells with hMCP-1; dose response curves; read-out: approximate EC50 for rise in [Ca2+]i
Method: b) MCP-1 Mediated Calcium Flux in THP-1 Cells
The human monocytic cell line THP-1 was grown in a synthetic cell culture medium RPMI 1640 supplemented with 10% foetal calf serum, 2 mM glutamine and Penicillin-Streptomycin (at 50 μg streptomycin/mil, Gibco BRL). THP-1 cells were washed in HBSS (lacking Ca^2+ and Mg^2+)+1 mg/ml BSA and resuspended in the same buffer at a density of 3×10^6 cells/ml. The cells were then loaded with […] FURA-2/AM for 30 min at 37° C., washed twice in HBSS, and resuspended at 1×10^6 cells/ml. […] The cuvette was placed in a fluorescence spectrophotometer (Perkin Elmer, Norwalk, Conn.) and preincubated for 4 min at 37° C. with stirring. Fluorescence was recorded over 70 sec and cells were stimulated by addition of hMCP-1 to the cuvette after 10 sec. [Ca^2+]i was measured by excitation at 340 nm and 380 nm alternately and subsequent measurement of the intensity of the fluorescence emission at 510 nm. […] Rmax is the maximal fluorescence ratio determined after addition of […] Ionomycin, Rmin is the minimal ratio determined by the subsequent addition of a Ca^2+ free solution containing 5 mM EGTA, and Sf2/Sb2 is the ratio of fluorescence values at 380 nm excitation determined at Rmin and Rmax, respectively. […]

[2] = tested on: THP-1 cells; assay: hMCP-1 mediated chemotaxis assay; type: cell-based, human; details: hMCP-1 induced concentration dependent cell migration
Method: c) hMCP-1 Mediated Chemotaxis Assay.
In vitro chemotaxis assays were performed using either the human monocytic cell line THP-1 or peripheral blood mixed monocytes obtained from fresh human blood purified by erythrocyte sedimentation followed by density gradient centrifugation over 9.6%(w/v) sodium metrizoate and 5.6%(w/v) polysaccharide, density 1.077 g/ml (Lymphoprep™ Nycomed). Cell migration through polycarbonate membranes was measured by enumerating those passing through either directly by Coulter counting or indirectly by use of a colourimetric viability assay measuring the cleavage of a tetrazolium salt by the mitochondrial respiratory chain (Scudiero D. A. et al. 1988, Cancer Res., 48, 48274833).
Chemoattractants were introduced into a 96-well microtiter plate which forms the lower well of a chemotaxis chamber fitted with a PVP-free 5 μm poresize polycarbonate adhesive framed filter membrane (NeuroProbe MB series, Cabin John, Md. 20818, USA) according to the manufacturer's instructions. The chemoattractant was diluted as appropriate in synthetic cell culture medium, RPMI 1640 (Gibco) supplemented with 2 mM glutamine and 0.5% BSA. […] The plate was incubated at 37° C. for 3 h and the absorbance of the soluble formazan product was read on a microtitre plate reader at 450 nm. […]

[3] = target: T1, MCP-1 receptor B (CCR2B) (Homo sapiens, UniProt P41597); assay: hMCP-1 receptor-binding assay (125I-MCP-1 competition on CHO-CCR2B cell membranes)
T1 construct: expressed in transfected cells; membrane fragments
T1 sequence (P41597 1-360 isoform P41597-2): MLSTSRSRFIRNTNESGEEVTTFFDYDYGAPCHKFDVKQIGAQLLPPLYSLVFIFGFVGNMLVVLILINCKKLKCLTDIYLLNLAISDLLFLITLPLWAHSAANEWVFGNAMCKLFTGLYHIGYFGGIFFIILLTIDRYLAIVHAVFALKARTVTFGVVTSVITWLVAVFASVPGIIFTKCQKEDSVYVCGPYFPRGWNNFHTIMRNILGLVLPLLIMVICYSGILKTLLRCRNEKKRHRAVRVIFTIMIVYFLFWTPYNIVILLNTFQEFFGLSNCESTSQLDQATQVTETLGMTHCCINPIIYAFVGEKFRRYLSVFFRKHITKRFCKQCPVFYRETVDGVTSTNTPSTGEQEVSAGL
Excerpt: a) hMCP-1 Receptor-Binding Assay i) Cloning and Expression of hMCP-1 Receptor
The MCP-1 receptor B (CCR2B) cDNA was cloned by PCR from THP-1 cell RNA using suitable oligonucleotide primers based on the published MCP-1 receptor sequences (Charo et al., 1994, Proc. Natl. Acad. Sci. USA, 91, 2752). The resulting PCR products were cloned into vector PCR-II™ (InVitrogen, San Diego, Calif.). Error free CCR2B cDNA was subcloned as a Hind III-Not I fragment into the eukaryotic expression vector pcDNA3 (InVitrogen) to generate pcDNA3/CC-CKR2A and pcDNA3/CCR2B respectively.
Linearised pcDNA3/CCR2B DNA was transfected into CHO-K1 cells by calcium phosphate precipitation (Wigler et al., 1979, Cell, 16, 777). Transfected cells were selected by the addition of Geneticin Sulphate (G418, Gibco BRL) at 1 mg/ml, 24 hours after the cells had been transfected. Preparation of RNA and Northern blotting were carried out as described previously (Needham et al., 1995, Prot. Express. Purific., 6, 134). CHO-K1 clone 7 (CHO-CCR2B) was identified as the highest MCP-1 receptor B expressor. […]
ii) Preparation of Membrane Fragments […]
^125I MCP-1 was prepared using Bolton and Hunter conjugation (Bolton et al., 1973, Biochem. J., 133, 529; Amersham International plc]. Equilibrium binding assays were carried out using the method of Ernst et al., 1994, J. Immunol., 152, 3541. Briefly, varying amounts of ^125I-labeled MCP-1 were added to […] of purified CHO-CCR2B cell membranes in […] of Binding Buffer. After 1 hour incubation at room temperature the binding reaction mixtures were filtered and washed 5 times through a plate washer (Packard Harvester Filtermate™ 196). Scintillation fluid (25 μl, Microscint™-20, a high efficiency liquid scintillation counting cocktail for aqueous samples) was added to each well and the plate was covered with plate sealer and counted (Packard Top Count™). […] Non-specific binding was determined by the inclusion of a 200-fold molar excess of unlabelled MCP-1 in the reaction. […]

Row | melting point | Molecule | other results
1 | 163 to 164 °C | CC(=O)c1c(C(=O)O)n(Cc2ccc(Cl)c(Cl)c2)c2ccccc12 | 
2 | 261 to 262 °C | CC(=O)c1ccc2c(c1)cc(C(=O)O)n2Cc1ccc(Cl)c(Cl)c1 [Example 3.85, 5-Acetyl-N-(3,4-Dichlorobenzyl)indole-2-carboxylic acid] | 
3 | 245 to 246 °C | CC(=O)Nc1ccc2c(c1)cc(C(=O)O)n2Cc1ccc(Cl)c(Cl)c1 [Example 4, N-(3,4-Dichlorobenzyl)-5-acetylaminoindole-2-carboxylic acid] | 
4 | 219 to 220 °C | O=C(O)c1cc2ccc(Cl)cc2n1Cc1ccc(Cl)c(Cl)c1 | 
5 | 256 to 257 °C | O=C(O)c1cc2ccc([N+](=O)[O-])cc2n1Cc1ccc(Cl)c(Cl)c1 [Example 3.64, N-(3,4-Dichlorobenzyl)-6-nitroindole-2-carboxylic acid] | 
6 |  | MCP-1: human Monocyte Chemoattractant Protein-1, a C—C chemokine; natural ligand used to validate the assays | EC50 [1]: ~2 nM; concentration of maximal cell migration (biphasic response) [2]: 0.5-1.0 nm; IC50 ([3]; membrane fragments from CHO-CCR2B cells, cold competition with 125I-labeled MCP-1, read-out: IC50 of MCP-1 binding to CCR2B): 0.11 nM; Kd ([3]; membrane fragments from CHO-CCR2B cells, equilibrium binding): 0.12 nM
7 |  | COc1ccc(Cn2c(C(=O)O)cc3cc(F)ccc32)cc1 [Example 3.23, 5-Fluoro-N-(4-methoxybenzyl)indole-2-carboxylic acid] | IC50 ([3]; competition with 100 pM labelled MCP-1, CHO-CCR2B cell membranes, read-out: IC50 in the hMCP-1 receptor binding assay): 7380 nM
8 | 198 °C | O=C(O)c1cc2ccccc2n1Cc1ccc(Cl)c(Cl)c1 | 
9 | 184 to 185 °C | O=C(O)c1c([C@@H]2C[C@H]2C(=O)O)c2ccccc2n1Cc1ccc(Cl)c(Cl)c1 (relative stereo) [Example 3.58, N-(3,4-Dichlorobenzyl)-3-(trans-2-carboxy-cyclopropyl)indole-2-carboxylic acid] | 
10 | 220 to 221 °C | COc1cccc2c1cc(C(=O)O)n2Cc1ccc(Cl)c(Cl)c1 | 
11 | 296 to 297 °C | O=C(O)c1cc2c([N+](=O)[O-])cccc2n1Cc1ccc(Cl)c(Cl)c1 [Example 3.65, N-(3,4-Dichlorobenzyl)-4-nitroindole-2-carboxylic acid] | 
12 | 238 to 239 °C | O=C(O)c1cc2ccc(C(F)(F)F)cc2n1Cc1ccc(Cl)c(Cl)c1 | 
13 | 232 to 233 °C | O=C(O)c1cc2cc(Br)ccc2n1Cc1ccc(Cl)c(Cl)c1 | 
14 | 133 to 140 °C | CCOC(=O)c1cc2cc([N+](=O)[O-])ccc2n1Cc1ccc(Cl)c(Cl)c1 [Example 1.03, Ethyl N-(3,4-dichlorobenzyl)-5-nitroindole-2-carboxylate] | 
15 | 95 to 96 °C | CCOC(=O)c1cc2cc(Br)ccc2n1Cc1ccc(Cl)c(Cl)c1 [Example 1.04, Ethyl 5-bromo-N-(3,4-dichlorobenzyl)indole-2-carboxylate] | 
16 | 165 to 166 °C | COc1ccc2cc(C(=O)O)n(Cc3ccc(Cl)c(Cl)c3)c2c1 | 
